“Also recorded” adds a separate entry of the source. Like-named read-outs stand apart in the source and are kept apart here.
Legend:
[1] = system: T. cruzi (Tulahuen strain) expressing β-galactosidase; experiment: T. cruzi growth inhibition assay (β-gal activity, infection of NIH/3T3 cells); type: cell-based, Trypanosoma cruzi; settings: Trypanosoma cruzi, TULAHUEN, NIH3T3, 96 h, 4 days
Protocol: NIH/3T3 cells and parasites were harvested, washed once and resuspended in DMEM supplemented with 2% FBS and Pen-Strep-Glut. […] Different numbers of NIH/3T3 cells were seeded in 96-well plates. After 3 h, compounds were added at the indicated concentrations and mixed by pipetting. BZN tablets (Rochagan, Roche) dissolved in DMSO and 4 µM Amphotericin B solution (Sigma-Aldrich) were used as positive controls. Different numbers of T. cruzi parasites were added in a final volume of 200 µl/well. After 4 days, 50 µl of PBS containing 0.5% of the detergent NP40 and 100 µM Chlorophenol Red-β-D-galactoside (CPRG) (Fluka) were added. Plates were incubated at 37°C for 4 h and absorbance was read at 590 nm using a Tecan Spectra Mini plate reader.
To calculate the Z′ factor, we used the formula described by Zhang et al.: Z′ = 1−[(3σc++3σc−) / |μc+−μc−|] where σc+ = standard deviation (SD) of positive control, σc− = SD of negative control, μc+ = mean of positive control, μc− = mean of negative control. Subsequently, the best ratio was used for all growth inhibition assays (50.000 cells and parasites, multiplicity of infection (MOI) 1∶1).
To determine IC50 values, β-gal activity (Abs590) was plotted against compound concentration for each compound. The IC50 was determined as the concentration at which the activity (absorbance) was half that in the absence of compound. Mean IC50 values are the average of independent experiments performed in triplicate on three different days.

T. cruzi = settings: cited from earlier work
Leishmania = system: Leishmania; design: method as in PMID 15891135; settings: read-out: IC50 (Leishmania positive control); cited from earlier work
T. cruzi Y strain = experiment: Development assay with immunofluorescence (Y strain); type: cell-based, Trypanosoma cruzi; settings: added after 2 h infection, 2 days
Protocol: (§1) Fifty thousand NIH/3T3 cells were seeded on sterile glass coverslips in 12-well plates and allowed to adhere overnight. Five million parasites were added (MOI 100∶1) and allowed to infect for 2 h in DMEM+2% FBS and Pen-Strep-Glut. Parasites were rinsed out three times with PBS. Infected cells were further incubated and fixed for 15 min with 4% paraformaldehyde at the times indicated.
(§2) Fixed cells on coverslips were rinsed with PBS, permeabilized for 15 min in PBS with 0.1% Triton X-100 (Sigma-Aldrich). After blocking for 20 min in PBS with 10% goat serum, 1% bovine serum albumin, 100 mM glycine and 0.05% sodium azide, cells were incubated for 1 h at room temperature with a polyclonal rabbit anti-T. cruzi (gift from Dr B. Burleigh, Harvard School of Public Health, Boston, MA) at 1∶2000 dilution. After rinsing, an Alexa Fluor® 488 goat anti-rabbit IgG secondary antibody (Molecular Probes, Invitrogen) was added for 1 h at a 1∶800 dilution. DNA was stained with DAPI and coverslips were mounted on Mowiol. To determine the number of parasites per infected cell, between 200 and 300 infected cells per coverslip were scored in triplicate samples using an inverted Olympus IX70 microscope with a 60× oil objective. Data are presented as mean±standard deviation. Images were taken with the same microscope.

HepG2 cells = experiment: Cytotoxicity assay (Alamar Blue) on HepG2 cells; type: cell-based, human
Protocol: (§3) Cells (NIH/3T3 or HepG2) were washed and plated at a density of 50,000 cells/well of 96-well plates in 200 µl and allowed to adhere for 3 h. Twenty-four hour assays were done in DMEM without phenol red supplemented with 10% FBS and Pen-Strep-Glut, while 4-day assays were done in the same medium containing 2% FBS. Drugs were added and mixed. After 1 or 4 days, 20 µl of Alamar Blue (Biosource, Invitrogen) was added. Plates were incubated for 4 h (HepG2) or 6 h (NIH/3T3) at 37°C and fluorescence was read using a Labsystems Fluoroskan II plate reader (excitation: 544 nm, emission: 590 nm) .
(§4) To determine TC50 values, fluorescence was plotted against inhibitor concentration. TC50 was determined as the concentration at which cytotoxicity (fluorescence) was half that in the absence of inhibitor.

[2] = system: intracellularly growing T. cruzi amastigotes; experiment: Development assay with immunofluorescence (intracellular amastigotes, Tulahuen β-gal strain); type: cell-based, Trypanosoma cruzi; settings: for Number of parasites per infected cell (intracellular replication) / Morphology of intracellularly growing T. cruzi: added after 2 h infection; for Number of parasites per infected cell (intracellular replication): 2 days; for Morphology of intracellularly growing T. cruzi: fixed after 2 or 3 days, PCH1 100 nM, NT1 400 nM, CX1 90 nM
Protocol: as §1, §2

L. amazonensis = experiment: Leishmania growth inhibition assay in bone marrow-derived macrophages (L. amazonensis); type: cell-based; settings: 3 days; for Reduction in parasite burden, L. amazonensis: 2 µM, added 2 h post-infection of macrophages; for IC50: Leishmania amazonensis, Macrophage, 72 h, macrophages, read-out: estimated IC50 against intracellular L. amazonensis
Protocol: (§5) Adherent bone marrow-derived macrophages were harvested in cold DMEM+0.5 mM EDTA and seeded into an 8-well Lab-Tek II chambered coverglass (Nalge Nunc International, Naperville, IL) at a concentration of 50,000 cells/chamber 24 h before being used for infections.
(§6) L. major and L. amazonensis parasites were opsonized for 30 min by incubation in DMEM containing 4% BALB/c serum and then allowed to invade macrophages in 200 µl DMEM supplemented with 10% FBS and Pen-Strep-Glut, at a MOI of 3 parasites per macrophage for 2 h at 33°C (5% CO2, 95% air humidity),[17]. Thereafter, non-phagocytosed parasites were washed off, and the cultures were further incubated in 300 µl of medium in the presence or the absence of drugs at the indicated concentration for 3 days for L. amazonensis and 5 days for L. major. Medium was changed and drugs were added again at the same concentration on day 2 post-infection. Intracellular parasites were assessed after staining with DAPI (3 µM) by fluorescence microscopy. The total number of amastigotes/500 macrophages was counted in each well. Kruskal-Wallis test was used to analyze the data, followed by a Dunn's post-comparison test.

[3] = system: Free trypomastigotes (β-gal T. cruzi); experiment: T. cruzi lysis assay; type: cell-based; settings: Trypanosoma cruzi; lysis assay, 100,000 parasites, 24 h
Protocol: Trypomastigotes were rinsed once and plated in 96-well plates at 100,000/well with the compounds in a final volume of 200 µl of DMEM without phenol red supplemented with 2% FBS, Pen-Strep-Glut and 100 µM CPRG. Plates were incubated for 24 h at 37°C and absorbance was read at 590 nm.

L. major = experiment: Leishmania growth inhibition assay in bone marrow-derived macrophages (L. major); type: cell-based; settings: 5 days; for Reduction in parasite burden, L. major: 2 µM, added 2 h post-infection of macrophages; for IC50: Leishmania major, Macrophage, 120 h, macrophages, read-out: estimated IC50 against intracellular L. major
Protocol: as §5, §6

NIH/3T3 cells = experiment: Cytotoxicity assay (Alamar Blue) on NIH/3T3 cells; type: cell-based; settings: 4 days
Protocol: as §3, §4

mammalian cells = experiment: Cytotoxicity on mammalian cells (cell type not given); type: cell-based; settings: type of mammalian cells and duration not specified at the place
Protocol: as §3, §4

[4] = β-gal T. cruzi Tulahuen, 50.000 NIH/3T3 cells and parasites (MOI 1:1), read-out: IC50 Intracellular growth

Structure (SMILES)	IC50 ([1]; β-gal T. cruzi Tulahuen in NIH/3T3 cells, read-out: IC50 T. cruzi growth inhibition) [nM]	IC50 (T. cruzi; read-out: IC50 against T. cruzi (reported)) [nM]	IC50 (T. cruzi; read-out: IC50 against T. cruzi in vitro) [nM]	IC50 (Leishmania) [nM]	Effect on intracellular T. cruzi Y strain (T. cruzi Y strain)	IC50 [1, 4] [nM]	TC50 HepG2 cells at 24 h (HepG2 cells) [nM]	TC50 HepG2 cells at 4 days (HepG2 cells) [nM]	Phenotype of intracellular T. cruzi, compounds added 2 days after infection [2]	Number of parasites per infected cell (intracellular replication) [2]	Morphology of intracellularly growing T. cruzi [2]	Reduction in parasite burden, L. amazonensis (L. amazonensis) [%]	IC50 (L. amazonensis) [nM]	IC50 [3] [nM]	Reduction in parasite burden, L. major (L. major)	IC50 (L. major) [nM]	TC50 NIH/3T3 cells at 4 days (NIH/3T3 cells) [nM]	Toxicity (TC50) versus anti-trypanosomal activity (IC50) (mammalian cells)
O=C(Cn1ccnc1[N+](=O)[O-])NCc1ccccc1 [BZN, benznidazole, reference compound]	1150	1500	–	–	–	–	–	–	–	–	–	–	–	–	–	–	–	–
OC(Cn1cncn1)(Cn1cncn1)c1ccc(F)cc1F [Fluconazole, fluconazole]	–	–	8000	–	–	–	–	–	–	–	–	–	–	–	–	–	–	–
C[C@@H]1[C@H](O)[C@@H](C)/C=C/C=C/C=C/C=C/C=C/C=C/C=C/[C@H](O[C@@H]2O[C@H](C)[C@@H](O)[C@H](N)[C@@H]2O)C[C@@H]2O[C@](O)(C[C@@H](O)C[C@@H](O)[C@H](O)CC[C@@H](O)C[C@@H](O)CC(=O)O[C@H]1C)C[C@H](O)[C@H]2C(=O)O [Amphotericin B]	–	–	–	100	–	–	–	–	–	–	–	–	–	–	–	–	–	–
O=C(NN=Cc1ccc(-c2cccc(Cl)c2Cl)o1)c1ccccn1 [PCH1, N′-{[5-(2,3-dichlorophenyl)-2-furyl]methylene}-2-pyridinecarbohydrazide]	–	–	–	–	inhibit intracellular replication of T. cruzi Y strain	54 ± 10	>300000	66000 ± 7000	induced major defects in cell division at the IC100 and parasite lysis at higher doses	induced a growth arrest of intracellular T. cruzi	larger amastigotes containing multiple disorganized nuclei and kinetoplasts were observed	70	~100	240000 ± 60000	about 50%	~2000	>300000	–
Cc1cc(OCCCCCCn2ccnc2)cc(C)c1Cl [CX1, 1-[6-(4-chloro-3,5-dimethylphenoxy)hexyl]-1H-imidazole]	–	–	–	–	induced parasite lysis with morphological changes; also recorded: dose effect on the Y strain of T. cruzi was similar to the β-gal-expressing Tulahuen strain	23 ± 7	57000 ± 8000	12000 ± 4000	induced parasite lysis and host cell apoptosis in concentrations as low as 90 nM	–	displayed pycnotic nuclei (star) and debris of parasites protein and DNA throughout the cytoplasm	70	~500	13500 ± 1000	~70%	~500	16000 ± 6000	over 500 fold
O=C(Cn1cnc([N+](=O)[O-])n1)Nc1cc(Oc2cccc(C(F)(F)F)c2)cc([N+](=O)[O-])c1 [NT1, 2-(3-nitro-1H-1,2,4-triazol-1-yl)-N-{3-nitro-5-[3-(trifluoromethyl)phenoxy]phenyl}acetamide]	–	–	–	–	inhibit intracellular replication of T. cruzi Y strain; also recorded: displayed activity on the Y strain, but at higher concentrations	190 ± 40	30000 ± 10000	7600 ± 300	had a trypanostatic effect	induced a growth arrest of intracellular T. cruzi	inhibited replication of parasites without altering their overall morphology	50	~500	6800 ± 900	~80%	~500	14000 ± 6000	–

Reference: paper PMC2639639, “Identification of Three Classes of Heteroaromatic Compounds with Activity against Intracellular Trypanosoma cruzi by Chemical Library Screening” (PLoS Neglected Tropical Diseases, 2009)
